In patent US20160362416A1, “ANTIVIRAL COMPOUNDS” (Gilead Sciences, Inc., priority 2012, published 2016):

Assays:
[1] = system: stable HCV 1b RLuc replicon cells (genotype 1b Con1 replicon); test: HCV genotype 1b RLuc replicon reporter assay; assay type: cell-based; settings: Hepatitis C virus; stable genotype 1b Con1 RLuc replicon cells, 72 hours
Procedure: (§1) Evaluation of cell-based anti-HCV activity: Antiviral potency (EC50) was determined using a Renilla luciferase (RLuc)-based HCV replicon reporter assay. To perform the assay for genotype 1 and 2a JFH-1, stable HCV 1a RLuc replicon cells (harboring a dicistronic genotype 1a H77 replicon that encodes a RLuc reporter), stable HCV lb RLuc replicon cells (harboring a dicistronic genotype 1b Conl replicon that encodes a RLuc reporter), or stable HCV 2a JFH-1 Rluc replicon cells (harboring a dicistronic genotype 2a JFH-1 replicon that encodes a RLuc reporter; with L31 present in NS5A) were dispensed into 384-well plates for EC50 assays. To perform the assay for genotype 2a (with M31 present in NS5A) or 2b, NS5A chimeric genotype 2a JFH-1 replicons that encodes a RLuc-Neo reporter and either genotype 2a J6 strain NS5A gene or genotype 2b MD2b-1 strain NS5A gene (both with M31 present) respectively, were either transiently transfected (t) into Huh-Lunet cells or were established as stably replicating replicon cells (s) is provided. Either cells were dispensed into 384-well plates for EC50 assays. To perform the assay for genotype 3 and 4, NS5A chimeric genotype 1b Conl replicons that encodes a Pi-RLuc reporter and either genotype 3a S52 strain NS5A gene or genotype 4a ED43 strain NS5A gene respectively, were transiently transfected (t) into Huh-Lunet cells, which were subsequently dispensed into 384-well plates. Compounds were dissolved in DMSO at a concentration of 10 mM and diluted in DMSO either manually or using an automated pipeting instrument. Serially 3-fold diluted compounds were either manually mixed with cell culture media and added to the seeded cells or directly added to the cells using an automated instrument. DMSO was used as a negative (solvent; no inhibition) control, and the protease inhibitor ITMN-191 was included at a concentration >100×EC50 as a positive control. 72 hours later, cells were lysed and Renilla luciferase activity quantified as recommended by the manufacturer (Promega-Madison, Wis.). Non-linear regression was performed to calculate EC50 values.

[2] = system: stable HCV 1a RLuc replicon cells (genotype 1a H77 replicon); test: HCV genotype 1a RLuc replicon reporter assay; assay type: cell-based; settings: Hepatitis C virus; stable genotype 1a H77 RLuc replicon cells, 72 hours
Procedure: as §1

[3] = system: stable HCV 2a JFH-1 Rluc replicon cells (L31 present in NS5A); test: HCV genotype 2a JFH-1 RLuc replicon reporter assay; assay type: cell-based; settings: Hepatitis C virus, 72 h, read-out: 2a JFH (nM)
Procedure: as §1

[4] = system: NS5A chimeric genotype 2a JFH-1 replicon with genotype 2a J6 strain NS5A gene (M31); test: HCV genotype 2a J6 NS5A chimeric replicon assay, transient (t); assay type: cell-based; settings: Hepatitis C virus, 72 h, read-out: 2a J6 (t) (nM)
Procedure: as §1

[5] = system: NS5A chimeric genotype 2a JFH-1 replicon with genotype 2b MD2b-1 strain NS5A gene (M31); test: HCV genotype 2b NS5A chimeric replicon assay, stable (s); assay type: cell-based; settings: Hepatitis C virus, 72 h, read-out: 2b (s) (nM)
Procedure: as §1

[6] = system: NS5A chimeric genotype 1b Con1 replicon with genotype 3a S52 strain NS5A gene; test: HCV genotype 3a NS5A chimeric replicon assay; assay type: cell-based; settings: Hepatitis C virus, 72 h, read-out: 3a (nM)
Procedure: as §1

[7] = system: NS5A chimeric genotype 1b Con1 replicon with genotype 4a ED43 strain NS5A gene; test: HCV genotype 4a NS5A chimeric replicon assay; assay type: cell-based; settings: Hepatitis C virus, 72 h, read-out: 4a (s) (nM)
Procedure: as §1, with “[…],” for “were transiently transfected (t) into Huh-Lunet cells,”

[8] = system: Y93H in genotype 1a NS5A replicon; test: Resistance mutant replicon assay, genotype 1a NS5A Y93H; assay type: cell-based, HCV; settings: Hepatitis C virus, read-out: 1a Y93H (nM)
Procedure: as §1
(§2) To determine the antiviral potency (EC50) against resistance mutants, resistance mutations, including M28T, Q30R, Q30H, Q30E, L31M, Y93C, Y93H, and Y93N in genotype 1a NS5A, Y93H and L31V/Y93H in genotype 1b NS5A, and Y93H for in genotype 3a NS5A, were introduced individually into either 1a Pi-Rluc or 1b Pi-Rluc replicons by site directed mutagenesis. Replicon RNA of each resistant mutant was transiently transfected into Huh-7-derived cured-51 cells and antiviral potency was determined on these transfected cells as described above.

[9] = system: Y93N in genotype 1a NS5A replicon; test: Resistance mutant replicon assay, genotype 1a NS5A Y93N; assay type: cell-based, HCV; settings: Hepatitis C virus, read-out: 1a Y93N (nM)
Procedure: as §1, §2

[10] = system: Y93H in genotype 3a NS5A replicon; test: Resistance mutant replicon assay, genotype 3a NS5A Y93H; assay type: cell-based, HCV; settings: Hepatitis C virus, read-out: 3a Y93H (nM)
Procedure: as §1, §2

Row | Compound | EC50 [1] [nM] | EC50 [2] [nM] | EC50 [3] [nM] | EC50 [4] [nM] | EC50 [5] [nM] | EC50 [6] [nM] | EC50 [7] [nM] | EC50 [8] [nM] | EC50 [9] [nM] | EC50 [10] [nM]
1 | COC(=O)N[C@H](C(=O)N1[C@@H](C)CC[C@H]1c1ncc(-c2ccc3c(c2)COc2cc4c(ccc5nc([C@@H]6C[C@@H]7CCC[C@@H]7N6C(=O)[C@@H](NC(=O)OC)C6C[C@@H](C)O[C@H](C)C6)[nH]c54)cc2-3)[nH]1)C(C)C (stereo partly drawn) [Example AX, methyl {(2S)-1-[(2S,5S)-2-(5-{2-[(2S,3aS,6aS)-1-{(2S)-2-[(2R,6R)-2,6-dimethyltetrahydro-2H-pyran-4-yl]-2-[(methoxycarbonyl)amino]acetyl}octahydrocyclopenta[b]pyrrol-2-yl]-1,11-dihydroisochromeno[4′,3′:6,7]naphtho[1,2-d]imidazol-9-yl}-1H-imidazol-2-yl)-5-methylpyrrolidin-1-yl]-3-methyl-1-oxobutan-2-yl}carbamate] | 0.022 | 0.017 | 0.012 | 0.046 | 0.027 | 0.015 | 0.01 | 0.48 | 0.885 | 4.97
2 | COC[C@H]1C[C@@H](c2nc3ccc4cc5c(cc4c3[nH]2)OCc2cc(-c3cnc([C@@H]4CC[C@H](C)N4C(=O)[C@@H](NC(=O)OC)C4C[C@@H](C)O[C@H](C)C4)[nH]3)ccc2-5)N(C(=O)[C@@H](NC(=O)OC)C2C[C@@H](C)O[C@H](C)C2)C1 (stereo partly drawn) [Example BD, methyl {(1S)-1-[(2R,6R)-2,6-dimethyltetrahydro-2H-pyran-4-yl]-2-[(2S,5S)-2-(5-{2-[(2S,4S)-1-{(2S)-2-[(2R,6R)-2,6-dimethyltetrahydro-2H-pyran-4-yl]-2-[(methoxycarbonyl)amino]acetyl}-4-methoxymethylpyrrolidin-2-yl]-1,11-dihydroisochromeno[4′,3′:6,7]naphtho[1,2-d]imidazol-9-yl}-1H-imidazol-2-yl)-5-methylpyrrolidin-1-yl]-2-oxoethyl}carbamate] | 0.096 | 0.06 | 0.017 | – | 0.026 | 0.072 | 0.029 | 0.088 | 0.104 | 0.814
3 | CC[C@H](C)[C@H](NC(=O)OC)C(=O)N1[C@@H](C)CC[C@H]1c1ncc(-c2ccc3c(c2)COc2cc4c(cc2-3)CCc2nc([C@@H]3CC[C@H](C)N3C(=O)[C@@H](NC(=O)OC)C3C[C@@H](C)O[C@H](C)C3)[nH]c2-4)[nH]1 (stereo partly drawn) [Example BE, methyl{(2S,3S)-1-[(2S,5S)-2-(5-{2-[(2S,5S)-1-{(2S)-2-[(2R,6R)-2,6-dimethyltetrahydro-2H-pyran-4-yl]-2-[(methoxycarbonyl)amino]acetyl}-5-methylpyrrolidin-2-yl]-1,4,5,11-tetrahydroisochromeno[4′,3′:6,7]naphtho[1,2-d]imidazol-9-yl}-1H-imidazol-2-yl)-5-methylpyrrolidin-1-yl]-3-methyl-1-oxopentan-2-yl}carbamate] | 0.019 | 0.017 | 0.011 | – | 0.029 | 0.022 | 0.011 | 0.755 | 1.42 | 2.25
4 | COC(=O)N[C@H](C(=O)N1[C@@H](C)CC[C@H]1c1ncc(-c2ccc3c(c2)COc2cc4c(cc2-3)CCc2nc([C@@H]3CC[C@H](C)N3C(=O)[C@@H](NC(=O)OC)C3C[C@@H](C)O[C@H](C)C3)[nH]c2-4)[nH]1)C1C[C@@H](C)O[C@H](C)C1 (stereo partly drawn) [Example BF, methyl {(1S)-1-[(2R,6R)-2,6-dimethyltetrahydro-2H-pyran-4-yl]-2-[(2S,5S)-2-(9-{2-[(2S,5S)-1-{(2S)-2-[(2R,6R)-2,6-dimethyltetrahydro-2H-pyran-4-yl]-2-[(methoxycarbonyl)amino]acetyl}-5-methylpyrrolidin-2-yl]-1H-imidazol-5-yl}-1,4,5,11-tetrahydroisochromeno[4′,3′:6,7]naphtho[1,2-d]imidazol-2-yl)-5-methylpyrrolidin-1-yl]-2-oxoethyl}carbamate] | 0.049 | 0.048 | 0.021 | 0.035 | 0.042 | 0.065 | 0.025 | 0.035 | 0.125 | 0.365
5 | CC[C@H](C)[C@H](NC(=O)OC)C(=O)N1[C@H](c2ncc(-c3ccc4c(c3)COc3cc5c(ccc6nc([C@@H]7CC[C@H](C)N7C(=O)[C@@H](NC(=O)OC)C7C[C@@H](C)O[C@H](C)C7)[nH]c65)cc3-4)[nH]2)C[C@@H]2CCC[C@@H]21 (stereo partly drawn) [Example BG, methyl{(2S,3S)-1-[(2S,3aS,6aS)-2-(5-{2-[(2S,5S)-1-{(2S)-2-[(2R,6R)-2,6-dimethyltetrahydro-2H-pyran-4-yl]-2-[(methoxycarbonyl)amino]acetyl}-5-methylpyrrolidin-2-yl]-1,11-dihydroisochromeno[4′,3′:6,7]naphtho[1,2-d]imidazol-9-yl}-1H-imidazol-2-yl)hexahydrocyclopenta[b]pyrrol-1(2H)-yl]-3-methyl-1-oxopentan-2-yl}carbamate] | 0.018 | 0.02 | 0.017 | 0.045 | 0.039 | 0.028 | 0.017 | 0.364 | 0.883 | 5.58
